The source of these data is patent US10413583B2, “Synthetic substrates for enzymes that catalyze reactions of modified cysteines and related methods” (The University of Chicago, priority 2016, dated 2019).

Structures are written as SMILES. Entries after “also recorded” stand apart in the source; their conditions may differ.

Holding throughout (format): cell-based, human
One assay relates to HEK293T cells. The assay can be described thus: Epifluorescent imaging of DPP-5 (and DPP-1, DPP-4) in HEK293T cells. The procedure:
(§1) 250,000 HEK293T cells/well, 120,000 HeLa cells/well, or 100,000 HepG2 cells/well were plated in 700 μL DMEM glutamax (10% FBS+1% P/S) into 4-well chambered imaging dish (D35C4-20-1.5-N, Cellvis, Mountain View, Calif., United States of America), which were precoated with 5 μg Poly-D-lysine (30-70 KDa, Alfa Aesar, Haverhill, Mass., United States of America) for 2 h. After 20-24 h, the media was replaced by 1 μM Hoechst 33342 and DMSO/5 μM PalmB in 400 μL DMEM glutamax. After 30 min of incubation at 37° C., the cells were washed with 400 μL of Live Cell Imaging Solution and replaced by 1 μM DPP-5 with DMSO or 5 μM of PalmB in Live Cell Imaging Solution. […] For data analysis, the average fluorescence intensity per image in each experimental condition was obtained by selecting ROI in Brightfield and applying that to the corresponding DPP-5 image, average background fluorescence intensity was subtracted and data was normalized to the average fluorescence intensity of the DMSO control. […]

In assay [1] the test system is HeLa cells. The experiment in a line: Epifluorescent imaging of DPP-5 with PalmB in HeLa cells. As to the method: as §1
The subject of assay [2] is HeLa cells. The assay can be described thus: Flow cytometry of DPP-3 in HeLa cells. The following applies: 1 μM inhibitor, 5 μM DPP-3, 5 min. As to the method: (§2) Cells were plated on a 10 cm dish with 10 mL of DMEM/High Glucose (10% FBS, 1% P/S, L-Glutamine, Sodium pyruvate) 36-48 hours prior to the day of experiment and maintained at 37° C., 5% CO2 so as to obtain 80-90% confluency. Cells were washed with DPBS and trypsinized with 1 mL 0.05% Trypsin. 5 mL of DMEM/High Glucose (10% FBS, L-Glutamine, Sodium pyruvate) was added and cells were spun down at 1200 rpm for 3 min. Media was discarded and cells were resuspended in 5 mL of Live Cell Imaging Solution and again spun down at 1200 rpm for 3 min. The cells pellets obtained were resuspended in 3-5 mL of Live Cell Imaging Solution and divided into 500 μL aliquots. The aliquots were treated with either 0.2% DMSO carrier or 1 μM of PalmB/ML348 or 1 μM/5 μM of ML349 inhibitor. After 30 min of incubation at room temperature, 1 μL of 2.5 mM DPP-3 in DMSO was added to each aliquot for a final concentration of 5 μM, and the solutions were mixed. After 5 min incubation at room temperature, fluorescence signal in FITC channel was measured for 10000 cells (5000 for HeLa experiments) on a LSR-Fortessa 4-15 HTS (BD digital instrument, 488 nm laser with 530/30 nm filter for FITC; BD, Franklin Lakes, N.J., United States of America). For analyzing DPP2 in HEK293T cells, the aliquots were treated with either 0.2% DMSO carrier or 2 μM of PalmB, 5 or 20 μM of ML348/ML349 and then analyzed by the protocol as mentioned above. Data was analyzed by FlowJo software version 10.0.8. For comparison of A431 starved versus non-starved, parallel 10 cm dishes of A431 cells were plated in 10 mL of DMEM (high glucose, 10% FBS, 1% P/S), and grown for 36 h. The growth media was removed, and replaced by 10 mL of either DMEM (High glucose) with 10% FBS to maintain “growth” conditions, or DMEM (High glucose) without FBS respectively for “starvation” conditions, and incubated for 14 h. After trypsinization, both plates were treated with 5 mL of DMEM (high glucose) for spinning the cells down, and further processing and analysis were performed as described above by flow cytometry.

For a further assay, the system named is MCF-7 cells. The experiment in a line: Flow cytometry of DPP-3 in MCF-7 cells. The following applies: 1 μM inhibitor, 5 μM DPP-3, 5 min. The procedure:
as §2

Setting [3] is: 5 μM PalmB pretreatment, 1 μM DPP-5.

Regarding `CCCCCCCCCCCCCCCC(=O)SC[C@@H](C(=O)NC)N(C)C(=O)Oc1ccc2c(c1)Oc1cc(N3CCN(C(=O)CCC(=O)O)CC3)ccc1C21OC(=O)c2ccccc21` (some centres unmarked) [DPP-5], the “probe fluorescent signal in cells” value was “bright, intracellular fluorescent signal; also recorded: robust fluorescent signal” in the assay with HEK293T cells (1 μM probe for 20 minutes) and “robust intracellular fluorescent signal” in the assay with HeLa cells [1] (1 μM probe for 20 minutes).
As for `O=C(CN1CCN(C(=O)c2ccco2)CC1)Nc1cc(C(F)(F)F)ccc1Cl` [ML348], the “effect of inhibitor on depalmitoylation signal measured by DPP-3” value in the assay on HeLa cells [2] and in the assay on MCF-7 cells was “knocks down the depalmitoylation signal” throughout.
As to `CCCCCCCCCC[C@@H]1C(=O)O[C@H]1CCc1ccc(OC)c(OC)c1` [PalmB, palmostatin B], the “effect of inhibitor on depalmitoylation signal measured by DPP-3” value with HeLa cells [2] and in the assay on MCF-7 cells was “knocks down the depalmitoylation signal” throughout. The “fluorescent signal of DPP-5 abolished” value in the assay with HEK293T cells (setting [3]) is recorded as “about 95%”. Further, in the assay with HeLa cells [1] (setting [3]), the “turn-on response of DPP-5 blocked” value was “more than 95%”.
